Experimental data published in ChEMBL document CHEMBL1255329, “Effect of polysorbate 80 on oritavancin binding to plastic surfaces: implications for susceptibility testing” (2008).

How the values were obtained:
Type in all cases: functional
Enterococcus faecalis [1] = assay: Antibacterial activity against Enterococcus faecalis ATCC 29212 in CAMHB medium by broth microdilution method in absence of 0.002% polysorbate 80
Staphylococcus aureus [2] = assay: Antibacterial activity against Staphylococcus aureus ATCC 29213 assessed as reduction in compound MIC by broth microdilution method in presence of 0.002% polysorbate 80 in inoculum
Streptococcus pneumoniae [3] = assay: Antibacterial activity against Streptococcus pneumoniae ATCC 49619 in CAMHB medium containing 2% LHB by broth microdilution method in absence of 0.002% polysorbate 80
Streptococcus pneumoniae [4] = assay: Antibacterial activity against Streptococcus pneumoniae ATCC 49619 in BHI broth containing 2% LHB by broth microdilution method in absence of 0.002% polysorbate 80
Enterococcus faecium [5] = assay: Antibacterial activity against Enterococcus faecium clinical isolate by broth microdilution method in presence of 0.002% polysorbate 80
Staphylococcus aureus [6] = assay: Antibacterial activity against Staphylococcus aureus ATCC 29213 in CAMHB medium containing 2% LHB by broth microdilution method in presence of 0.002% polysorbate 80
Streptococcus pneumoniae [7] = assay: Antibacterial activity against Streptococcus pneumoniae ATCC 49619 in BHI broth by broth microdilution method in absence of 0.002% polysorbate 80
[8] = Antibacterial activity against Streptococcus Group G clinical isolate by broth microdilution method; settings: Streptococcus sp. 'group G'
[9] = Antibacterial activity against Streptococcus Group C clinical isolate by broth microdilution method in presence of 0.002% polysorbate 80; settings: Streptococcus sp. 'group C'
Streptococcus pneumoniae [10] = assay: Antibacterial activity against Streptococcus pneumoniae clinical isolate by broth microdilution method
Staphylococcus aureus [11] = assay: Antibacterial activity against Staphylococcus aureus ATCC 29213 in CAMHB medium containing 2% LHB by broth microdilution method in absence of 0.002% polysorbate 80
Streptococcus agalactiae [12] = assay: Antibacterial activity against Streptococcus agalactiae clinical isolate using 2% LHB by broth microdilution method
Streptococcus viridans [13] = assay: Ratio of MIC for Streptococcus viridans group clinical isolate to MIC for Streptococcus viridans group clinical isolate in presence of 0.002% polysorbate 80
Staphylococcus aureus [14] = assay: Antibacterial activity against Staphylococcus aureus ATCC 29213 in CAMHB medium by broth microdilution method in absence of 0.002% polysorbate 80
Streptococcus pneumoniae [15] = assay: Antibacterial activity against Streptococcus pneumoniae ATCC 49619 in BHI broth by broth microdilution method in presence of 0.002% polysorbate 80
Streptococcus pyogenes [16] = assay: Ratio of MIC for Streptococcus pyogenes clinical isolate to MIC for Streptococcus pyogenes clinical isolate in presence of 0.002% polysorbate 80
Streptococcus pneumoniae [17] = assay: Antibacterial activity against Streptococcus pneumoniae ATCC 49619 in BHI broth containing 2% LHB by broth microdilution method in presence of 0.002% polysorbate 80
Enterococcus faecalis [18] = assay: Ratio of MIC for Enterococcus faecalis clinical isolate to MIC for Enterococcus faecalis clinical isolate in presence of 0.002% polysorbate 80
Staphylococcus aureus [19] = assay: Antibacterial activity against Staphylococcus aureus ATCC 29213 in CAMHB medium by broth microdilution method in presence of 0.002% polysorbate 80
Streptococcus pyogenes [20] = assay: Antibacterial activity against Streptococcus pyogenes clinical isolate by broth microdilution method
Staphylococcus aureus [21] = assay: Ratio of MIC for Staphylococcus aureus clinical isolate to MIC for Staphylococcus aureus clinical isolate in presence of 0.002% polysorbate 80
Enterococcus faecalis [22] = assay: Antibacterial activity against Enterococcus faecalis clinical isolate by broth microdilution method
Enterococcus faecalis [23] = assay: Antibacterial activity against Enterococcus faecalis ATCC 29212 in CAMHB medium containing 2% LHB by broth microdilution method in presence of 0.002% polysorbate 80
Staphylococcus [24] = assay: Antibacterial activity against coagulase-negative Staphylococcus clinical isolate by broth microdilution method
Enterococcus faecium [25] = assay: Antibacterial activity against Enterococcus faecium clinical isolate by broth microdilution method
Staphylococcus [26] = assay: Antibacterial activity against coagulase-negative Staphylococcus clinical isolate by broth microdilution method in presence of 0.002% polysorbate 80
Streptococcus pneumoniae [27] = assay: Ratio of MIC for Streptococcus pneumoniae clinical isolate to MIC for Streptococcus pneumoniae clinical isolate in presence of 0.002% polysorbate 80
Streptococcus pneumoniae [28] = assay: Antibacterial activity against Streptococcus pneumoniae ATCC 49619 in CAMHB medium containing 2% LHB by broth microdilution method in presence of 0.002% polysorbate 80
Staphylococcus [29] = assay: Ratio of MIC for coagulase-negative Staphylococcus clinical isolate to MIC for coagulase-negative Staphylococcus clinical isolate in presence of 0.002% polysorbate 80
Enterococcus faecalis [30] = assay: Antibacterial activity against Enterococcus faecalis clinical isolate by broth microdilution method in presence of 0.002% polysorbate 80
Streptococcus pneumoniae [31] = assay: Antibacterial activity against Streptococcus pneumoniae clinical isolate by broth microdilution method in presence of 0.002% polysorbate 80
Streptococcus agalactiae [32] = assay: Antibacterial activity against Streptococcus agalactiae clinical isolate using 2% LHB by broth microdilution method in presence of 0.002% polysorbate 80
[33] = Antibacterial activity against Streptococcus Group C clinical isolate by broth microdilution method; settings: Streptococcus sp. 'group C'
Staphylococcus aureus [34] = assay: Antibacterial activity against Staphylococcus aureus clinical isolate by broth microdilution method in presence of 0.002% polysorbate 80
Enterococcus faecium [35] = assay: Ratio of MIC for Enterococcus faecium clinical isolate to MIC for Enterococcus faecium clinical isolate in presence of 0.002% polysorbate 80
Streptococcus pyogenes [36] = assay: Antibacterial activity against Streptococcus pyogenes clinical isolate by broth microdilution method in presence of 0.002% polysorbate 80
Staphylococcus aureus [37] = assay: Antibacterial activity against Staphylococcus aureus ATCC 29213 assessed as reduction in compound MIC by broth microdilution method in presence of 0.002% polysorbate 80 in solvent
[38] = Antibacterial activity against Streptococcus Group G clinical isolate by broth microdilution method in presence of 0.002% polysorbate 80; settings: Streptococcus sp. 'group G'
Enterococcus faecalis [39] = assay: Antibacterial activity against Enterococcus faecalis ATCC 29212 in CAMHB medium containing 2% LHB by broth microdilution method in absence of 0.002% polysorbate 80
Staphylococcus aureus [40] = assay: Antibacterial activity against Staphylococcus aureus clinical isolate by broth microdilution method
Streptococcus viridans [41] = assay: Antibacterial activity against Streptococcus viridans group clinical isolate by broth microdilution method
Enterococcus faecalis [42] = assay: Antibacterial activity against Enterococcus faecalis ATCC 29212 in CAMHB medium by broth microdilution method in presence of 0.002% polysorbate 80
Streptococcus viridans [43] = assay: Antibacterial activity against Streptococcus viridans group clinical isolate by broth microdilution method in presence of 0.002% polysorbate 80

CN[C@H](CC(C)C)C(=O)N[C@H]1C(=O)N[C@@H](CC(N)=O)C(=O)N[C@H]2C(=O)N[C@H]3C(=O)N[C@H](C(=O)N[C@H](C(=O)O)c4cc(O)cc(O)c4-c4cc3ccc4O)[C@H](O[C@H]3C[C@](C)(N)[C@@H](O)[C@H](C)O3)c3ccc(c(Cl)c3)Oc3cc2cc(c3O[C@@H]2O[C@H](CO)[C@@H](O)[C@H](O)[C@H]2O[C@H]2C[C@](C)(NCc3ccc(-c4ccc(Cl)cc4)cc3)[C@@H](O)[C@H](C)O2)Oc2ccc(cc2Cl)[C@H]1O [ORITAVANCIN]
0.001 mg/L: MIC (Streptococcus pneumoniae [3]) | MIC (Streptococcus pneumoniae [4]) | MIC (Streptococcus pneumoniae [15]) | MIC (Streptococcus pneumoniae [17])
0.008 mg/L: MIC (Streptococcus pneumoniae [7])
1: Ratio (Streptococcus viridans [13]) | Ratio (Streptococcus pyogenes [16]) | Ratio (Streptococcus pneumoniae [27])
0.5 mg/L: MIC (Enterococcus faecalis [1])
0.03 mg/L: MIC (Staphylococcus aureus [6]) | MIC (Staphylococcus aureus [11]) | MIC (Staphylococcus aureus [19]) | MIC (Enterococcus faecalis [23]) | MIC (Enterococcus faecalis [42])
2 mg/L: MIC90 (Enterococcus faecalis [22])
0.25 mg/L: MIC90 (Enterococcus faecium [5]) | MIC90 (Streptococcus pyogenes [20]) | MIC90 (Staphylococcus [26]) | MIC90 (Streptococcus agalactiae [32]) | MIC90 (Streptococcus pyogenes [36])
0.016 mg/L: MIC (Enterococcus faecalis [39])
0.12 mg/L: MIC90 (Enterococcus faecalis [30]) | MIC90 (Staphylococcus aureus [34])
0.004 mg/L: MIC [8] | MIC [9] | MIC90 (Streptococcus pneumoniae [10]) | MIC90 (Streptococcus pneumoniae [31]) | MIC [33] | MIC [38]
1 mg/L: MIC90 (Streptococcus agalactiae [12]) | MIC (Staphylococcus aureus [14]) | MIC90 (Streptococcus viridans [41]) | MIC90 (Streptococcus viridans [43])
16: Ratio (Enterococcus faecalis [18]) | Ratio (Staphylococcus [29]) | Ratio (Enterococcus faecium [35]) | fold change (FC) (Staphylococcus aureus [37])
32: Ratio (Staphylococcus aureus [21])
4: fold change (FC) (Staphylococcus aureus [2])
0.002 mg/L: MIC (Streptococcus pneumoniae [28])
4 mg/L: MIC90 (Staphylococcus [24]) | MIC90 (Enterococcus faecium [25]) | MIC90 (Staphylococcus aureus [40])

CN[C@H](CC(C)C)C(=O)N[C@H]1C(=O)N[C@@H](CC(N)=O)C(=O)N[C@H]2C(=O)N[C@H]3C(=O)N[C@H](C(=O)N[C@H](C(=O)O)c4cc(O)cc(O)c4-c4cc3ccc4O)[C@H](O)c3ccc(c(Cl)c3)Oc3cc2cc(c3O[C@@H]2O[C@H](CO)[C@@H](O)[C@H](O)[C@H]2O[C@H]2C[C@](C)(N)[C@H](O)[C@H](C)O2)Oc2ccc(cc2Cl)[C@H]1O [VANCOMYCIN]
2 mg/L: MIC90 (Enterococcus faecalis [22]) | MIC90 (Staphylococcus [26]) | MIC90 (Enterococcus faecalis [30]) | MIC (Enterococcus faecalis [39])
> 256 mg/L: MIC90 (Enterococcus faecium [5]) | MIC90 (Enterococcus faecium [25])
0.5 mg/L: MIC90 (Streptococcus agalactiae [12]) | MIC90 (Streptococcus agalactiae [32]) | MIC90 (Streptococcus viridans [41]) | MIC90 (Streptococcus viridans [43])
0.12 mg/L: MIC [9] | MIC [33]
1 mg/L: MIC90 (Staphylococcus [24]) | MIC90 (Staphylococcus aureus [34]) | MIC90 (Staphylococcus aureus [40])
0.25 mg/L: MIC (Streptococcus pneumoniae [3]) | MIC (Streptococcus pneumoniae [4]) | MIC (Streptococcus pneumoniae [7]) | MIC [8] | MIC90 (Streptococcus pneumoniae [10]) | MIC (Streptococcus pneumoniae [15]) | MIC (Streptococcus pneumoniae [17]) | MIC (Streptococcus pyogenes [20]) | MIC90 (Streptococcus pyogenes [20]) | MIC (Streptococcus pneumoniae [28]) | MIC90 (Streptococcus pneumoniae [31]) | MIC (Streptococcus pyogenes [36]) | MIC90 (Streptococcus pyogenes [36]) | MIC [38]
